Assay results from US8148391B2 (Cephalon, Inc., priority 2006, dated 2012).
Read-outs that look alike come from different tables or passages of the source.

Tests used:
[1] = target: T1, c-Met (cytoplasmic domain) (Homo sapiens, UniProt P08581); assay: c-Met Kinase Assay (same methods as for ALK, with modifications); assay type: biochemical
T1 construct: 10 ng/mL c-Met (cytoplasmic domain, Invitrogen Corporation #PV3143); purchased Invitrogen Corporation PV3143
Procedure, shortened: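 Plates were coated with phospholipase C-γ substrate (10 μg/mL) in TBS, and the reaction was started with 10 ng/mL c-Met cytoplasmic domain and run 15 min at 37 °C. Phosphoproduct was detected with Eu-N1-labelled PT66 antibody. IC50 came from a variable-slope sigmoidal fit of percent inhibition vs log concentration.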

[2] = target: T2, baculovirus-expressed ALK (Homo sapiens, UniProt Q9UM73); assay: ALK Kinase Assay (ELISA-type, time-resolved fluorescence); assay type: biochemical
T2 construct: host or cells: baculovirus expression system
T2 sequence (Q9UM73 19-1620): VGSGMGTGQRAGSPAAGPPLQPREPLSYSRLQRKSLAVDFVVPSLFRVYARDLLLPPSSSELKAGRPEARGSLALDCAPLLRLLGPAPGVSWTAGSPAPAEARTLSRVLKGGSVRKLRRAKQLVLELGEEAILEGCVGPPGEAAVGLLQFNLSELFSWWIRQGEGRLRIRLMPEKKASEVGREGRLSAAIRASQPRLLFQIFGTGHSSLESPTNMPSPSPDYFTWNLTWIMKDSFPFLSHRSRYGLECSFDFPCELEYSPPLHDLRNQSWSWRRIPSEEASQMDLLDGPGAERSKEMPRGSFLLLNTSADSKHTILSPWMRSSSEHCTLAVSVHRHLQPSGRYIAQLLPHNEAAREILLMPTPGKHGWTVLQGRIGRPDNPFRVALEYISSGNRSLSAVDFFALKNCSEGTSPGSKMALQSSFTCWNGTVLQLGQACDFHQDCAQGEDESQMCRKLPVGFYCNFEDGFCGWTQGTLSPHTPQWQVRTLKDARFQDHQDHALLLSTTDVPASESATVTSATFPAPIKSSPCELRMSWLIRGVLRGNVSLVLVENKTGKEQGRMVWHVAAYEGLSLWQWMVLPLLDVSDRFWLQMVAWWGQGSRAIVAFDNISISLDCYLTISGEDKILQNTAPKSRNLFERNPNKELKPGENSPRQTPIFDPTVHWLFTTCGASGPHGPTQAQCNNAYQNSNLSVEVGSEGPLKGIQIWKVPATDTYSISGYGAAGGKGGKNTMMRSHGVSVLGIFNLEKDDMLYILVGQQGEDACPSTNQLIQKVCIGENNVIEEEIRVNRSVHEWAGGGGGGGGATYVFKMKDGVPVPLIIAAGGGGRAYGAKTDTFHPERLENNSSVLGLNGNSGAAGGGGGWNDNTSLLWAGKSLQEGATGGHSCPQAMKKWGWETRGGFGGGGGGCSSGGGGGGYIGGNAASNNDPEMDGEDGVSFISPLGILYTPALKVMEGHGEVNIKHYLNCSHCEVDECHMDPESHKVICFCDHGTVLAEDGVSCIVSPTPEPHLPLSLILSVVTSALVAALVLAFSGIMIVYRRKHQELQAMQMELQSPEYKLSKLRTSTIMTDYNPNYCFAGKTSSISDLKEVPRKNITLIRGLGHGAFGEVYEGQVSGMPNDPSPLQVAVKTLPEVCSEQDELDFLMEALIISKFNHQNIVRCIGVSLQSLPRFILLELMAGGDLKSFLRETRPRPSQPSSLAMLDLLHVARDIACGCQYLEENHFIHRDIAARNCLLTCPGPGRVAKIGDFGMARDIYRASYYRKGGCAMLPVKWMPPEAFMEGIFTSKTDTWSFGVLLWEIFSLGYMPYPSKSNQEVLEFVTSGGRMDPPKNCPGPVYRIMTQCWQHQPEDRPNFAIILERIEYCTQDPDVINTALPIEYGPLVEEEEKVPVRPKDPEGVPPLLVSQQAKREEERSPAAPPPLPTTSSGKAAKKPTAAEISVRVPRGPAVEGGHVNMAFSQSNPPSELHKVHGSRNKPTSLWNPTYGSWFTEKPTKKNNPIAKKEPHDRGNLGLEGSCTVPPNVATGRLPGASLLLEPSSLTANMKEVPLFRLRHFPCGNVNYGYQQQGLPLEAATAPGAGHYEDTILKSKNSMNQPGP
Procedure, shortened: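 Plates coated with phospholipase C-γ substrate (10 μg/mL in TBS); reaction started with 30 ng/ml ALK and run 15 min at 37° C. Phosphorylated substrate detected with Eu-N1-labeled PT66 antibody. IC50 from sigmoidal variable-slope fit of percent inhibition vs log concentration.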

[3] = c-Met kinase inhibition, 1 μM ATP, read-out: cMet Activity
[4] = ALK kinase inhibition, 1 μM ATP, read-out: ALK Activity
[5] = c-Met kinase inhibition, 1 μM ATP (Km level), read-out: cMet Activity
[6] = ALK kinase inhibition, 1 μM ATP (Km level), read-out: ALK Activity
[7] = 1 μM ATP (Km level), read-out: cMet Activity (c-Met Kinase Inhibition, IC50)
[8] = 1 μM ATP (Km level), read-out: ALK Activity (ALK Kinase Inhibition, IC50)
[9] = 1 μM ATP (Km level), 10 ng/mL c-Met, read-out: cMet Activity (c-Met kinase inhibition, IC50 class)
[10] = 1 μM ATP (Km level), 30 ng/ml ALK, 37° C., 15 minutes, read-out: ALK Activity (ALK kinase inhibition, IC50 class)

T1 sequence (P08581 956-1390 limits assumed): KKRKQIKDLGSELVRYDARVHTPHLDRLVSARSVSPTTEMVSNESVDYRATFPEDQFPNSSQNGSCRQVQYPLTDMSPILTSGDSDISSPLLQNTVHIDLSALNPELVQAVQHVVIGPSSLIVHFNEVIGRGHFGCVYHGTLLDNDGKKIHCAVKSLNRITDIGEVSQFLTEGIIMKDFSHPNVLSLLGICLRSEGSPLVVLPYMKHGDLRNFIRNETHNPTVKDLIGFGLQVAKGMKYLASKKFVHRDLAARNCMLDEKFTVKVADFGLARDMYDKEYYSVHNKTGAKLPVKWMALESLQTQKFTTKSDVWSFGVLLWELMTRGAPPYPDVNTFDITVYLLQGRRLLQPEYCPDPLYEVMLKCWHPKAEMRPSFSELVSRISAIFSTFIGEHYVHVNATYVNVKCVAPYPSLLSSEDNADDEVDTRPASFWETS

For `CN1C(=O)CCC(C)(C)c2cc(Nc3ncc(Cl)c(N[C@H]4[C@@H](C(N)=O)[C@@H]5C=C[C@H]4C5)n3)ccc21` [Example 1571, (1S,2S,3R,4R)-3-[5-Chloro-2-(1,5,5-trimethyl-2-oxo-2,3,4,5-tetrahydro-1H-benzo[b]azepin-7-ylamino)-pyrimidin-4-ylamino]-bicyclo[2.2.1]hept-5-ene-2-carboxylic acid amide], the IC50 [1, 3] was 100 to 1000 nM and the IC50 [2, 4] was < 100 nM.

In the case of `COc1cc2c(cc1Nc1ncc(Cl)c(N[C@H]3[C@@H](C(N)=O)[C@@H]4C=C[C@H]3C4)n1)CCN(C[C@H](O)C(F)(F)F)CC2` [Example 1673, (1S,2S,3R,4R)-3-{5-Chloro-2-[8-methoxy-3-((S)-3,3,3-trifluoro-2-hydroxy-propyl)-2,3,4,5-tetrahydro-1H-benzo[d]azepin-7-ylamino]-pyrimidin-4-ylamino}-bicyclo[2.2.1]hept-5-ene-2-carboxylic acid amide], the IC50 [1, 3] is reported as > 10000 nM and the IC50 [2, 4] is reported as < 100 nM.

For `COCCN1CCc2ccc(Nc3ncc(Cl)c(Nc4ccccc4C(=O)NC(C)C)n3)cc2CC1` [Example 342, 2-{5-Chloro-2-[3-(2-methoxy-ethyl)-2,3,4,5-tetrahydro-1H-benzo[d]azepin-7-ylamino]-pyrimidin-4-ylamino}-N-isopropyl-benzamide], the IC50 [1, 5] was 100 to 1000 nM and the IC50 [2, 6] was < 100 nM.

In the case of `NC(=O)[C@@H]1[C@H](Nc2nc(Nc3ccc4c(c3)CCC(N3CCOCC3)CC4)ncc2Cl)[C@H]2C=C[C@@H]1C2` (stereo partly drawn) [Example 671, (1S,2S,3R,4R)-3-[5-Chloro-2-(7-morpholin-4-yl-6,7,8,9-tetrahydro-5H-benzocyclohepten-2-ylamino)-pyrimidin-4-ylamino]-bicyclo[2.2.1]hept-5-ene-2-carboxylic acid amide], the IC50 [1, 7] is reported as < 100 nM and the IC50 [2, 8] is reported as < 100 nM.

For `CNC(=O)c1cccc(F)c1Nc1nc(Nc2ccc3c(c2)NC(=O)CN(C(=O)OCc2ccccc2)C3)ncc1Cl` [Example 1857, 8-[5-Chloro-4-(2-fluoro-6-methylcarbamoyl-phenylamino)-pyrimidin-2-ylamino]-2-oxo-1,2,3,5-tetrahydro-benzo[e][1,4]diazepine-4-carboxylic acid benzyl ester], the IC50 [1, 3] was < 100 nM and the IC50 [2, 4] was 100 to 1000 nM.

In the case of `CCN1CCN(CC)c2cc(Nc3ncc(Cl)c(Nc4ccccc4S(=O)(=O)N(C)C)n3)ccc2C1` [Example 730, 2-[5-Chloro-2-(1,4-diethyl-2,3,4,5-tetrahydro-1H-benzo[e][1,4]diazepin-8-ylamino)-pyrimidin-4-ylamino]-N,N-dimethyl-benzenesulfonamide], the IC50 [1, 7] is reported as < 100 nM and the IC50 [2, 8] is reported as < 100 nM.

`CCC1C(=O)N(CC)CCc2c1ccc(Nc1ncc(Cl)c(Nc3ccccc3C(=O)NC)n1)c2OC` (stereo not drawn) [Example 152, 2-[5-Chloro-2-(1,3-diethyl-6-methoxy-2-oxo-2,3,4,5-tetrahydro-1H-benzo[d]azepin-7-ylamino)-pyrimidin-4-ylamino]-N-methyl-benzamide] was tested, and the IC50 [1, 5] was 1000 to 10000 nM and the IC50 [2, 6] was < 100 nM.

`CCN1CCc2ccc(Nc3ncc(Cl)c(NCC(C)(C)NS(C)(=O)=O)n3)cc2CC1` [Example 304, N-{2-[5-Chloro-2-(3-ethyl-2,3,4,5-tetrahydro-1H-benzo[d]azepin-7-ylamino)-pyrimidin-4-ylamino]-1,1-dimethyl-ethyl}-methanesulfonamide] was tested, and the IC50 [1, 5] was 1000 to 10000 nM and the IC50 [2, 6] was 100 to 1000 nM.

`CNC(=O)c1cccc(Nc2nc(Nc3ccc4c(c3)CCN(CCOC)CC4)ncc2Cl)c1` [Example 673, 3-{5-Chloro-2-[3-(2-methoxy-ethyl)-2,3,4,5-tetrahydro-1H-benzo[d]azepin-7-ylamino]-pyrimidin-4-ylamino}-N-methyl-benzamide] showed an IC50 [1, 7] of 1000 to 10000 nM and an IC50 [2, 8] of 100 to 1000 nM.

`CC(C)CN1C(=O)CCC(C)(C)c2ccc(Nc3ncc(Cl)c(N[C@H]4[C@@H](C(N)=O)[C@@H]5C=C[C@H]4C5)n3)cc21` [Example 1593, (1S,2S,3R,4R)-3-[5-Chloro-2-(1-isobutyl-5,5-dimethyl-2-oxo-2,3,4,5-tetrahydro-1H-benzo[b]azepin-8-ylamino)-pyrimidin-4-ylamino]-bicyclo[2.2.1]hept-5-ene-2-carboxylic acid amide] was tested, and the IC50 [1, 3] was 1000 to 10000 nM and the IC50 [2, 4] was < 100 nM.

For `COc1cc2c(cc1Nc1ncc(Cl)c(N[C@@H]3CCCC[C@H]3NS(C)(=O)=O)n1)CCC(NCCO)CC2` (single isomer, unassigned) [Example 1095], the IC50 [1, 9] was > 10000 nM and the IC50 [2, 10] was < 100 nM.

In the case of `COCCN1C2CCC1c1cc(Nc3ncc(Cl)c(N[C@@H]4CCCC[C@H]4NS(C)(=O)=O)n3)ccc1C2` (stereo partly drawn) [Example 77, N-((1R,2R)-2-{5-Chloro-2-[12-(2-methoxy-ethyl)-12-aza-tricyclo[7.2.1.0*2,7*]dodeca-2(7),3,5-trien-4-ylamino]-pyrimidin-4-ylamino}-cyclohexyl)-methanesulfonamide], the IC50 [1, 5] is reported as 100 to 1000 nM and the IC50 [2, 6] is reported as < 100 nM.

In the case of `CNC(=O)c1cccc(F)c1Nc1nc(Nc2ccc3c(c2)N(CCOC)C(=O)CCC3)ncc1Br` [Example 1473, 2-{5-Bromo-2-[1-(2-methoxy-ethyl)-2-oxo-2,3,4,5-tetrahydro-1H-benzo[b]azepin-8-ylamino]-pyrimidin-4-ylamino}-3-fluoro-N-methyl-benzamide], the IC50 [1, 3] is reported as < 100 nM and the IC50 [2, 4] is reported as 100 to 1000 nM.

For `COc1c(Nc2ncc(Cl)c(Nc3ccccc3S(=O)(=O)N3CCCC3)n2)ccc2c1CCC(N1CCOCC1)CC2` (stereo not drawn) [Example 900, 5-Chloro-N*2*-(1-methoxy-7-morpholin-4-yl-6,7,8,9-tetrahydro-5H-benzocyclohepten-2-yl)-N*4*-[2-(pyrrolidine-1-sulfonyl)-phenyl]-pyrimidine-2,4-diamine], the IC50 [1, 7] was 1000 to 10000 nM and the IC50 [2, 8] was < 100 nM.

With `CNC(=O)c1cc(Br)cc(F)c1Nc1nc(Nc2ccc3c(c2)NC(=O)CCC3)ncc1Cl` [Example 1414, 5-Bromo-2-[5-chloro-2-(2-oxo-2,3,4,5-tetrahydro-1H-benzo[b]azepin-8-ylamino)-pyrimidin-4-ylamino]-3-fluoro-N-methyl-benzamide] the IC50 [1, 9] was < 100 nM and the IC50 [2, 10] was 100 to 1000 nM.

`CN(C)S(=O)(=O)c1ccccc1Nc1nc(Nc2ccc3c(c2)CCN(C(=O)C2COCCO2)CC3)ncc1Cl` (stereo not drawn) [Example 638, 2-{5-Chloro-2-[3-([1,4]dioxane-2-carbonyl)-2,3,4,5-tetrahydro-1H-benzo[d]azepin-7-ylamino]-pyrimidin-4-ylamino}-N,N-dimethyl-benzenesulfonamide] was tested, and the IC50 [1, 7] was < 100 nM and the IC50 [2, 8] was < 100 nM.

With `COc1cc2c(cc1Nc1ncc(Cl)c(N[C@@H]3CCCC[C@H]3NS(C)(=O)=O)n1)CCC(N1CCN(C)CC1)CC2` (single isomer, unassigned) [Example 1102] the IC50 [1, 9] was < 100 nM and the IC50 [2, 10] was < 100 nM.

`CNC(=O)c1ccccc1Nc1nc(Nc2ccc3c(c2)C(=O)NCCO3)ncc1Cl` [Example 1880, 2-[5-Chloro-2-(5-oxo-2,3,4,5-tetrahydro-benzo[f][1,4]oxazepin-7-ylamino)-pyrimidin-4-ylamino]-N-methyl-benzamide] was tested, and the IC50 [1, 5] was < 100 nM and the IC50 [2, 6] was < 100 nM.

`CNC(=O)c1cc(-c2cnn(C)c2)cc(F)c1Nc1nc(Nc2ccc3c(c2)CCN(CCOC)CC3)ncc1Cl` [Example 1423, 2-{5-Chloro-2-[3-(2-methoxy-ethyl)-2,3,4,5-tetrahydro-1H-benzo[d]azepin-7-ylamino]-pyrimidin-4-ylamino}-3-fluoro-N-methyl-5-(1-methyl-1H-pyrazol-4-yl)-benzamide] was tested, and the IC50 [1, 9] was < 100 nM and the IC50 [2, 10] was < 100 nM.

`CNC(=O)c1ccccc1Nc1nc(Nc2ccc3c(c2OC)CCC(N2CCOCC2)CC3)ncc1Cl` (racemic) [Example 915, 2-[5-Chloro-2-(1-methoxy-7-morpholin-4-yl-6,7,8,9-tetrahydro-5H-benzocyclohepten-2-ylamino)-pyrimidin-4-ylamino]-N-methyl-benzamide] was tested, and the IC50 [1, 7] was 1000 to 10000 nM and the IC50 [2, 8] was < 100 nM.

`COc1cc2c(cc1Nc1ncc(Cl)c(Nc3ccccc3S(=O)(=O)N3CCCC3)n1)CCN(CCO)CC2` [Example 1543, 2-(7-{5-Chloro-4-[2-(pyrrolidine-1-sulfonyl)-phenylamino]-pyrimidin-2-ylamino}-8-methoxy-1,2,4,5-tetrahydro-3-benzazepin-3-yl)-ethanol] was tested, and the IC50 [1, 3] was 1000 to 10000 nM and the IC50 [2, 4] was < 100 nM.

With `CNC(=O)c1ccccc1Nc1nc(Nc2ccc3c(c2)CCN(S(C)(=O)=O)CC3)ncc1Cl` [Example 42, 2-[5-Chloro-2-(3-methanesulfonyl-2,3,4,5-tetrahydro-1H-benzo[d]azepin-7-ylamino)-pyrimidin-4-ylamino]-N-methyl-benzamide] the IC50 [1, 5] was < 100 nM and the IC50 [2, 6] was < 100 nM.

In the case of `CNS(=O)(=O)c1ccccc1Nc1nc(Nc2ccc3c(c2)C2CCC3CN(C(C)=O)C2)ncc1Cl` (stereo not drawn) [Example 289, 2-[2-(10-Acetyl-10-aza-tricyclo[6.3.2.0*2,7*]trideca-2,4,6-trien-4-ylamino)-5-chloro-pyrimidin-4-ylamino]-N-methyl-benzenesulfonamide], the IC50 [1, 5] is reported as 100 to 1000 nM and the IC50 [2, 6] is reported as < 100 nM.

With `COc1c(Nc2ncc(Cl)c(N[C@H]3[C@@H](C(N)=O)[C@@H]4C=C[C@H]3C4)n2)ccc2c1C(=O)C[C@@H](NC(C)=O)CC2` [Example 632, (1S,2S,3R,4R)-3-[2-((S)-7-Acetylamino-1-methoxy-9-oxo-6,7,8,9-tetrahydro-5H-benzocyclohepten-2-ylamino)-5-chloro-pyrimidin-4-ylamino]-bicyclo[2.2.1]hept-5-ene-2-carboxylic acid amide] the IC50 [1, 7] was > 10000 nM and the IC50 [2, 8] was 100 to 1000 nM.
